Results on 15 molecules are retold here after article PMC12779811, “Diverse phloroglucinols with hAChE inhibitory and anti-VRE effects from Rhodomyrtus tomentosa fruits” (Natural Products and Bioprospecting, 2026).

Values after ≈ are worked out from the molar mass of the structure shown. Some results are limits rather than exact numbers.

The subject of test [1] is vancomycin-resistant Enterococci (VRE). The test is described as follows: Anti-VRE assay, standard broth microdilution method in 96-well plates. The class given is cell-based. The following applies: Enterococcus, ampicillin positive control, tests performed three times, read-out: MIC against vancomycin-resistant Enterococci (VRE). The method, then:
As described in earlier studies, the antibacterial activities against vancomycin-resistant Enterococci (VRE) were achieved by a standard broth microdilution method in 96-well plates. Ampicillin (AMP) was a positive control, and all tests were performed three times.
(In broth dilution the organism is exposed to a series of concentrations in liquid medium.)

Test [2] has as its target T1, human acetylcholinesterase (hAChE) (Homo sapiens, UniProt P22303). The test is described as follows: biochemical. The note with it: triplicate; galantamine positive control; IC50 exceeding 40 μM considered inactive; read-out: hAChE inhibitory activity IC50 ± SD. Here is the method:
hAChE inhibition assays were performed according to a reported protocol, with galantamine as the positive control. All assays were performed in triplicate.

Test [3] concerns the target T1, human acetylcholinesterase (hAChE). The arrangement: method as in PMID 36007662. The note with it: earlier report; cited from earlier work.

T1 sequence (P22303 32-614): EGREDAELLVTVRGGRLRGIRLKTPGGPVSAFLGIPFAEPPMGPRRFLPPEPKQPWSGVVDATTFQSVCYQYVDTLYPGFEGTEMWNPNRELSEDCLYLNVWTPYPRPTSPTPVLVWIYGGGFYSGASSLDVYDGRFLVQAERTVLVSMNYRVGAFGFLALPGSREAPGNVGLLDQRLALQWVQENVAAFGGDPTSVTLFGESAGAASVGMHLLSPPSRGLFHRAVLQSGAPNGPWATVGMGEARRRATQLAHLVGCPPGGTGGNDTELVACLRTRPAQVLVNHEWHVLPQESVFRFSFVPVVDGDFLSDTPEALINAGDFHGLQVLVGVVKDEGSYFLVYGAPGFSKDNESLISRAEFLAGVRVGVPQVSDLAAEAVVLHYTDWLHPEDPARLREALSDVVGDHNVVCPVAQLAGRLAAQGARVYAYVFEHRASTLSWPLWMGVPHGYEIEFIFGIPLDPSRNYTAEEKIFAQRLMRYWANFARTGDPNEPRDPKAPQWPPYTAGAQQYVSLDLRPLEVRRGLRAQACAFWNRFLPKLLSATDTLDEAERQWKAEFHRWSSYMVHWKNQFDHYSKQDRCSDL

As a reminder, the MIC is the least concentration at which growth counts as inhibited. Turning to `CC1(C)S[C@@H]2[C@H](NC(=O)[C@H](N)c3ccccc3)C(=O)N2[C@H]1C(=O)O` [ampicillin, reference compound], the MIC in test [1] was 2 µg/mL (≈ 5.72 µM).

The IC50 is the midpoint of a concentration-inhibition curve. Consider `CC(C)C[C@H]1C2=C(O[C@]3(C)[C@H]1C[C@]1(C(C)C)C[C@@H]13)C(C)(C)C(=O)C(C)(C)C2=O` [phloroglucinol 1, rhodotomentodione F], for which the IC50 in test [2] is above 40000 nM.

As for `CC1(C)C(=O)C2=C(OC3(O)C(=C2)C(=O)C(C)(C)C(=O)C3(C)C)C(C)(C)C1=O` (stereo not shown) [phloroglucinol 2, rhodotomentodimer H], the IC50 in test [2] was above 40000 nM.

Consider `CCC(C)C1C2=C(Oc3c(C(=O)C(C)C)c(O)cc(O)c31)C(C)(C)C(=O)C(C)(C)C2=O` (stereo not shown) [phloroglucinol 3, rhodotomentodimer I], for which the IC50 in test [2] stood at 2890 ± 300 nM.

Consider `CCC(C)C(=O)c1c(O)cc(O)c2c1OC1=C(C(=O)C(C)(C)C(=O)C1(C)C)C2C(C)C` (stereo not shown) [phloroglucinol 4, rhodotomentodimer J], for which, in test [2], the IC50 was 2390 ± 250 nM.

Regarding `CCC(C)C(=O)c1c(O)cc(O)c2c1OC1=C(C(=O)C(C)(C)C(=O)C1(C)C)C2C(C)C` (stereo not shown) [phloroglucinol 5, rhodotomentodimer K], the half-inhibitory concentration (IC50) in test [2] was 2460 ± 330 nM.

In the case of `CCC(C)C(=O)c1c(O)cc(O)c2c1OC1=C(C(=O)C(C)(C)C(=O)C1(C)C)C2C(C)CC` (stereo not shown) [phloroglucinol 6, rhodotomentodimer L], the IC50 in test [2] stood at 2620 ± 210 nM.

`CCC(C)C(=O)c1c(O)cc(O)c2c1OC1=C(C(=O)C(C)(C)C(=O)C1(C)C)C2C(C)CC` (stereo not shown) [phloroglucinol 7, rhodotomentodimer M]: the IC50 in test [2] turned out to be 2410 ± 220 nM.

`CCC(C)C(=O)c1c(O)cc2c(c1O)C(C(C)CC)C1=C(O2)C(C)(C)C(=O)C(C)(C)C1=O` (stereo not shown) [phloroglucinol 8, rhodotomentodimer N]: in test [2], the IC50 was 3350 ± 410 nM.

For the molecule `CCC(C)C(=O)c1c(O)cc2c(c1O)C(C(C)C)C1=C(O2)C(C)(C)C(=O)C(C)(C)C1=O` (stereo not shown) [phloroglucinol 9, myrciarone B], the IC50 in test [2] came out at 2860 ± 300 nM.

With `CCC(C)C(=O)c1c(O)cc2c(c1O)C(CC(C)C)C1=C(O2)C(C)(C)C(=O)C(C)(C)C1=O` (stereo not shown) [phloroglucinol 10, rhodotomentodimer D], in test [3], the “inhibitory activity against human acetylcholinesterase (hAChE), in words” value is listed as “exhibited inhibitory activity”.

In the case of `CC(C)C(=O)c1c(O)cc2c(c1O)C(C(C)C)C1=C(O2)C(C)(C)C(=O)C(C)(C)C1=O` (stereo not shown) [phloroglucinol 11, isomyrtucommulone B], in test [2], the IC50 turned out to be 1360 ± 160 nM. Moreover, the MIC in test [1] worked out at 1 µg/mL (≈ 2.41 µM).

Take `CC(C)CC(=O)c1c(O)cc2c(c1O)C(CC(C)C)C1=C(O2)C(C)(C)C(=O)C(C)(C)C1=O` (stereo not shown) [phloroglucinol 12, rhodomyrtone]: the 50% inhibitory concentration (IC50) in test [2] stood at 1520 ± 140 nM. The MIC in test [1] came to 1 µg/mL (≈ 2.26 µM).

For `CC(C)C(=O)c1c(O)cc(O)c2c1OC1=C(C(=O)C(C)(C)C(=O)C1(C)C)C2C(C)C` (stereo not shown) [phloroglucinol 13, myrtucommulone B], in test [2], the IC50 is 1040 ± 30 nM. Besides, the MIC in test [1] is above 32 µg/mL.

For `CC(C)CC(=O)c1c(O)cc(O)c2c1OC1=C(C(=O)C(C)(C)C(=O)C1(C)C)C2C(C)C` (stereo not shown) [phloroglucinol 14, callistenone A], in test [2], the IC50 was found to be 1230 ± 110 nM. In addition, the MIC in test [1] was above 32 µg/mL.
